Measurements reported in patent publication US20070293581A1, “Methods for Buccal, Lingual or Sublingual Dosing Regimens of Epinephrine for the Treatment of Allergic Emergencies” (priority 2006, published 2007).
Read-outs that look alike come from different tables or passages of the source.

Test system: patient experiencing an allergic emergency (symptoms of anaphylaxis)
Method: A patient experiencing an allergic emergency initiates treatment at the onset of shortness of breath by self administering 40 mg of epinephrine free base in a buccal dosage form.
A patient experiencing an allergic emergency initiates treatment at the onset of shortness of breath by self administering 40 mg of epinephrine free base in a buccal dosage form. […] After another approximately 5 minutes pass without amelioration of the symptoms of anaphylaxis, the patient self administers a third buccal dosage form comprising 20 mg of epinephrine free base.
A patient experiencing an allergic emergency initiates treatment at the onset of shortness of breath by self administering 40 mg of epinephrine free base in a lingual dosage form. After approximately 5 minutes pass without amelioration of the symptoms of anaphylaxis, the patient self administers a second lingual dosage form comprising 40 mg of epinephrine free base. After another approximately 5 minutes pass without amelioration of the symptoms of anaphylaxis, the patient self administers a third lingual dosage form comprising 20 mg of epinephrine free base.

Measured: patient's symptoms of anaphylaxis

CNC[C@H](O)c1ccc(O)c(O)c1 [epinephrine free base, epinephrine]
relieved: Example 1: buccal dosage form, 40 mg then second 40 mg after approx. 5 minutes, outcome within about five minutes after the second dose | Example 2: buccal dosage form, 40 mg, then 20 mg at approx. 5 minute intervals, outcome within about five minutes after the third dose | Example 3: lingual dosage form, 40 mg, then 20 mg at approx. 5 minute intervals, outcome within about five minutes after the third dose
